SMILES strings stand for the structures. “Also recorded” adds a separate entry of the source.

The source of these data is patent US20180296523A1, “USE OF POLYMETHOXYLATED FLAVONES TO AMELIORATE CIRCADIAN RHYTHM DISORDERS” (THE BOARD OF REGENTS OF THE UNIVERSITY OF TEXAS SY, priority 2017, published 2018).

One assay addresses T1, GAL4 DBD-RORγ LBD (Mus musculus, UniProt P51450).
T1 construct: RORγ-LBD (aa 250-516); expressed in transfected cells; host or cells: HEK293T
T1 sequence (P51450 250-516): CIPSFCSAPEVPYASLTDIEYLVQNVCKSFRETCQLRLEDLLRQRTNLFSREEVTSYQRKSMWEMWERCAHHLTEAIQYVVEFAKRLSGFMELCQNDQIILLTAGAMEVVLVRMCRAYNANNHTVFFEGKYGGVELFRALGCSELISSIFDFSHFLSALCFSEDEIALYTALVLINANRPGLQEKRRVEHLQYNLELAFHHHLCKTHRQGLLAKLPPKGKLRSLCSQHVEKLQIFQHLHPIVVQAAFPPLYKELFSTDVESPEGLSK
Description: Mammalian one-hybrid reporter assay in HEK293T cells, GAL4-RORγ. Format: cell-based. The settings on record: ligand interaction reduces transcriptional activity. An excerpt:
(§1) Plasmids containing the retinoic acid-related orphan receptor response element (RORE) from mouse Bmal1 promoter, pcDNA3.1B-G4DBD-RORαLBD and pcDNA3.1BG4DBD-RORγLBD were constructed in our lab. Specifically, the 1960 bp sequences (−1830/+130) of the mouse Bmal1 promoter harboring either WT ([…] (SEQ ID NO:1) and […] (SEQ ID NO:2)) or mutant ([…] (SEQ ID NO:3)) RORE were PCR amplified from mouse genomic DNA and cloned into pGL3-promoter luciferase vector. For expression of RORα or RORγ-GAL4 protein, mouse RORα-LBD (aa 261-523) or RORγ-LBD (aa 250-516) were PCR amplified from mouse genomic DNA and cloned into a GAL4-DBD-containing vector, pcDNA3.1B.
(§2) For mammalian one-hybrid assays, HEK293T cells were cotransfected with pcDNA3.1B-G4DBD-RORα/γLBD, pGL4.31 and TK promoter Renilla luciferase construct (tK.pRL). To investigate the regulation of the Bmal1 reporter, Hepa1-6 cells were cotransfected with Bmal1-WT or mutant RORE reporter plasmids, RORα, RORγ or Rev-erbα expression construct along with tK.pRL. Mouse and human siRNA targeting RORα and RORγ were purchased from Santa Cruz. Transfection was performed by Lipfectamine 2000 reagent (Invitrogen) Twenty-four hours after transfection, the cells were treated with vehicle or NOB. Lysates were collected 24 h after treatment, and firefly and Renilla luciferase activities were measured by using a Dual-Luciferase Reporter System (Promega).
(§3) For radio-ligand receptor binding assays, previously described protocols with minor modifications (Kumar et al., 2010; Wang et al., 2010b) were adopted.
Background: Reporter assays use an easily measured gene product as a stand-in for the process of interest.

The target in the next assay is T2, RORα-LBD (Homo sapiens, UniProt P35398).
T2 sequence (P35398 272-510 limits assumed): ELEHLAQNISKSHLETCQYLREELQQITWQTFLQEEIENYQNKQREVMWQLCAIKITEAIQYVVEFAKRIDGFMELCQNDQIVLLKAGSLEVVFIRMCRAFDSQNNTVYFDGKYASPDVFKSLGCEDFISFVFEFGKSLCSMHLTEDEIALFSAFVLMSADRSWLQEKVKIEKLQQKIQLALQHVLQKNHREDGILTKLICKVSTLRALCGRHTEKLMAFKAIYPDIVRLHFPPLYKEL
Description: Radioligand receptor binding assay with 25-[3H]-OHC, RORα-LBD. The note with it: in the presence of 4.5 nM 25-[3H]-OHC. Here is the method: Ligand binding was determined by filter binding assays to calculate the Kd value. […] Ki was determined using the Cheng-Prusoff equation.

A further assay concerns the target T3, GAL4 DBD-RORα LBD (Mus musculus, UniProt P51448).
T3 construct: mouse RORα-LBD (aa 261-523); expressed in transfected cells; host or cells: HEK293T
T3 sequence (P51448 261-523): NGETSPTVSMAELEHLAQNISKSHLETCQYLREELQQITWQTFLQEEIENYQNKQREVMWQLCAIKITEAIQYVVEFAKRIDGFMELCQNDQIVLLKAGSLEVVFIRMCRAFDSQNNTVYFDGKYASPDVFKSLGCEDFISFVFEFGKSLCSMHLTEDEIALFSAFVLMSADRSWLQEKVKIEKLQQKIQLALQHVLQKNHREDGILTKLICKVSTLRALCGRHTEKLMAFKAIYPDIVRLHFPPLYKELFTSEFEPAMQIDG
Description: Mammalian one-hybrid reporter assay in HEK293T cells, GAL4-RORα. The settings on record: ligand interaction reduces transcriptional activity. Format: cell-based.
Source text: as §1, §2, §3

The test system of assay [1] is Clock^Δ19/+ PER2::Luc reporter cells. Description: High-throughput chemical screen, PER2::Luc reporter rhythm. The assay is classed as cell-based, mouse. The note with it: for PER2::Luc reporter rhythm / circadian amplitude: Clock^Δ19/+ cells, forskolin pre-stimulated. Here is the method: Specifically, the chemical screen for circadian clock modulators was conducted at the Chemical Genomics Core facility at the University of Texas Health Science Center at Houston (UTHSC-H). The in-house chemical library screened consisted of compounds from the National Institutes of Health (NIH) Clinical Collection, National Cancer Institute collection, and Microsource Spectrum Collection. Screening was conducted largely on the basis of the protocol previously described (Chen et al., 2012). […] Upon confluency, cells were incubated with 5 μM forskolin for 1-2 hr, followed by the addition of chemical compounds to the plates with robotic arms (Beckman), and then subjected to continuous monitoring over several days in a temperature-controlled EnVision microplate reader (Perkin Elmer). Data analysis was carried out by using the MultiCycle software (Actimetrics) for measurement of period, phase, and amplitude. The chemical screen for circadian clock modulators was conducted at the Chemical Genomics Core facility at the UTHSC-H. The in-house chemical library screened consists of compounds from NIH Clinical Collection, NCI collection and Microsource Spectrum Collection. The screening was conducted largely based on the protocol previously described (Chen et al., 2012). […] Cells were then incubated with 5 μM forskolin for 1-2 h followed by the addition of chemical compounds to the plates with robotic arms (Beckman), and then subjected to continuous monitoring over several days in a temperature-controlled EnVision microplate reader (Perkin Elmer). Data analysis was carried out by using the MultiCycle software (Actimetrics) for measurement of period, phase, and amplitude. […] Tissue explant experiments were conducted as described previously (Chen et al., 2012).

For `C[C@@H]1O[C@@H](O[C@H]2[C@H](Oc3cc(O)c4c(c3)O[C@H](c3ccc(O)cc3)CC4=O)O[C@H](CO)[C@@H](O)[C@@H]2O)[C@H](O)[C@H](O)[C@H]1O` [naringin, reference compound], the “activity on GAL4-RORγ chimeric receptor” value at GAL4 DBD-RORγ LBD is “no activities”. Moreover, the “competitive binding to RORα-LBD” value on RORα-LBD is “markedly diminished binding”. Moreover, the “activity on GAL4-RORα chimeric receptor” value at GAL4 DBD-RORα LBD is recorded as “no activities”. Further, the “PER2::Luc reporter rhythm / circadian amplitude” value in assay [1] is reported as “failed to enhance cellular circadian rhythms”. Moreover, the reporter luminescence result in assay [1] (PER2::LUC Clock^Δ19/+ reporter cells) is on record as “did not enhance the reporter luminescence”.

With `COc1ccc(-c2cc(=O)c3c(OC)c(OC)c(OC)c(OC)c3o2)cc1OC` [nobiletin], the “activity on GAL4-RORγ chimeric receptor” value on GAL4 DBD-RORγ LBD was “robust activities”. At RORα-LBD, the “competitive binding to RORα-LBD” value is given as “direct binding; also recorded: robust competitive binding”. The “activity on GAL4-RORα chimeric receptor” value at GAL4 DBD-RORα LBD is “robust activities”. Besides, the “PER2::Luc reporter rhythm / circadian amplitude” value in assay [1] is given as “enhance the reporter rhythm”; in assay [1] (listed as Nobiletin), “significantly enhance circadian amplitude”.
